Data published in ChEMBL document CHEMBL4024742, “Pharmaceutical Approaches to Target Antibiotic Resistance Mechanisms” (J Med Chem, 2017).
Converted amounts (≈) assume the structure as drawn.

Columns and labels:
[1] = test system: Staphylococcus epidermidis; experiment: Inhibition of biofilm formation in Staphylococcus epidermidis DSM 3269 at 1.5 ug/ml after 24 hrs by MTT assay; format: functional; conditions: DSM 3269, 24 h
Staphylococcus aureus [2] = experiment: Inhibition of biofilm formation in Staphylococcus aureus ATCC 657 at 1.5 ug/ml after 24 hrs by MTT assay; format: functional; conditions: ATCC 657, 24 h
Staphylococcus aureus [3] = experiment: Inhibition of biofilm formation in Staphylococcus aureus ATCC 25923 at 1.5 ug/ml after 24 hrs by MTT assay; format: functional; conditions: ATCC 25923, 24 h
Staphylococcus aureus [4] = experiment: Inhibition of biofilm formation in Staphylococcus aureus ATCC 29213 at 1.5 ug/ml after 24 hrs by MTT assay; format: functional; conditions: ATCC 29213, 24 h
[5] = test system: Staphylococcus epidermidis; experiment: Inhibition of biofilm formation in Staphylococcus epidermidis RP62A at 1.5 ug/ml after 24 hrs by MTT assay; format: functional
Staphylococcus aureus [6] = experiment: Inhibition of biofilm formation in Staphylococcus aureus ATCC 702 at 1.5 ug/ml after 24 hrs by MTT assay; format: functional; conditions: ATCC 702, 24 h
Staphylococcus aureus [7] = experiment: Antibacterial activity against Staphylococcus aureus 1199B after 24 hrs by broth microdilution method; format: functional
Staphylococcus aureus [8] = experiment: Antibacterial activity against Staphylococcus aureus ATCC 25923 after 24 hrs by broth microdilution method; format: functional; conditions: ATCC 25923, 24 h
[9] = Inhibition of Escherichia coli KPC-2 using nitrocefin as substrate preincubated for 5 mins followed by substrate addition
[10] = Inhibition of Escherichia coli SHV-1 using nitrocefin as substrate preincubated for 5 mins followed by substrate addition
[11] = Inhibition of Mycobacterium tuberculosis Eis
[12] = Inhibition of bacterial IMP-1 using nitrocefin as substrate; design: species or system Bacteria
[13] = molecular target: T1, Quinolone resistance protein NorA (Staphylococcus aureus) (UniProt P0A0J7); experiment: Inhibition of Staphylococcus aureus 1199B NorA assessed as potentiation of ciprofloxacin-induced antibacterial activity at 0.5 ug/ml after 24 hrs
T1 sequence (whole entry): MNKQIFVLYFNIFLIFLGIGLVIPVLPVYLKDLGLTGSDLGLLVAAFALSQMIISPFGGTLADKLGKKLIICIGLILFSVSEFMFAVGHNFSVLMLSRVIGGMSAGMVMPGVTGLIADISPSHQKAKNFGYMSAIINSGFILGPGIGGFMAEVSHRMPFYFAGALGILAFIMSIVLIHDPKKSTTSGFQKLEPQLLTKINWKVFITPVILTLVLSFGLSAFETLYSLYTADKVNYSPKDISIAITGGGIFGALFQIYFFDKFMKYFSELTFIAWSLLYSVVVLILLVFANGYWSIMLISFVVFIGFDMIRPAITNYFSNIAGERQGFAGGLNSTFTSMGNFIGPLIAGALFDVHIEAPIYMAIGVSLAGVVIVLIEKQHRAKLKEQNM

[14] = molecular target: T1, Quinolone resistance protein NorA (Staphylococcus aureus); experiment: Inhibition of Staphylococcus aureus 1199B NorA assessed as potentiation of ciprofloxacin-induced antibacterial activity at 2 ug/ml after 24 hrs
[15] = Inhibition of Klebsiella pneumoniae NP6 KPC-2 expressed in Escherichia coli DH5alpha
[16] = molecular target: T2, Quinolone resistance protein NorA (Staphylococcus aureus, UniProt P0A0J7); experiment: Inhibition of Staphylococcus aureus 1199B NorA assessed as reduction in ethidium bromide efflux by fluorescence assay
T2 sequence (P0A0J7 whole entry): T1 sequence (whole entry)

Staphylococcus aureus [17] = experiment: Antibiofilm activity against methicillin-resistant Staphylococcus aureus BAA-44 at 100 uM after 24 hrs by crystal violet staining based assay; format: functional; conditions: BAA-44, 24 h
Escherichia coli [18] = experiment: Antibacterial activity against multi drug-resistant Escherichia coli EM7 mutant after 24 hrs by serial dilution method; format: functional
Escherichia coli [19] = experiment: Antibacterial activity against multi drug-resistant Escherichia coli KG1 after 24 hrs by serial dilution method; format: functional; conditions: KG1, 24 h
Escherichia coli [20] = experiment: Antibacterial activity against multi drug-resistant Escherichia coli EM5 mutant after 24 hrs by serial dilution method; format: functional
Escherichia coli [21] = experiment: Antibacterial activity against multi drug-sensitive Escherichia coli MTCC 739 after 24 hrs by serial dilution method; format: functional; conditions: MTCC 739, 24 h
Escherichia coli [22] = experiment: Antibacterial activity against multi drug-resistant Escherichia coli KG4 after 24 hrs by serial dilution method; format: functional; conditions: KG4, 24 h
[23] = Inhibition of bacterial CTX-M by measuring nitrocefin degradation; design: species or system Bacteria
[24] = Inhibition of bacterial KPC by measuring nitrocefin degradation; design: species or system Bacteria
[25] = Inhibition of bacterial SHV by measuring nitrocefin degradation; design: species or system Bacteria
[26] = Inhibition of bacterial CMY by measuring nitrocefin degradation; design: species or system Bacteria
Staphylococcus aureus [27] = experiment: Inhibition of biofilm formation in Staphylococcus aureus ATCC 43866 at 25 ug/ml after 24 hrs by MTT assay; format: functional; conditions: ATCC 43866, 24 h
Staphylococcus aureus [28] = experiment: Antibacterial activity against planktonic Staphylococcus aureus ATCC 43866 after 24 hrs by broth microdilution method; format: functional; conditions: ATCC 43866, 24 h
[29] = test system: Staphylococcus epidermidis; experiment: Antibacterial activity against planktonic Staphylococcus epidermidis RP62A after 24 hrs by broth microdilution method; format: functional
Staphylococcus aureus [30] = experiment: Antibacterial activity against planktonic Staphylococcus aureus ATCC 29213 after 24 hrs by broth microdilution method; format: functional; conditions: ATCC 29213, 24 h
Escherichia coli [31] = experiment: Potentiation of tetracycline induced-antimicrobial activity against Escherichia coli assessed as fold reduction in tetracycline MIC at 25 ug/ml after 24 hrs by broth checkerboard method; format: functional

## O=C(c1cc(Br)ccc1O)c1[nH]c(Br)c(Cl)c1Br
[1]
  inhibition at 1.5 µg/mL: > 60%
Staphylococcus aureus [2]
  inhibition at 1.5 µg/mL: > 60%
Staphylococcus aureus [3]
  inhibition at 1.5 µg/mL: > 60%
Staphylococcus aureus [4]
  inhibition at 1.5 µg/mL: > 60%
[5]
  inhibition at 1.5 µg/mL: > 60%
Staphylococcus aureus [6]
  inhibition at 1.5 µg/mL: > 60%

## CC(C)(C)OC(=O)NCC(NC(=O)c1c[nH]c2ccccc12)c1c[nH]c2ccccc12 (stereo not drawn)
Staphylococcus aureus [7]
  MIC: > 32 µg/mL
Staphylococcus aureus [8]
  MIC: > 32 µg/mL

## O=C(Cc1cccs1)NC(Cn1cc(C(=O)O)nn1)B(O)O (stereo not drawn)
[9]
  IC50: 84 nM
[10]
  IC50: 130 nM

## O=C(c1cc(Cl)cc(Cl)c1O)c1[nH]c(Br)c(Br)c1Br
[1]
  inhibition at 1.5 µg/mL: 67.9 to 86.7%
Staphylococcus aureus [2]
  inhibition at 1.5 µg/mL: 67.9 to 86.7%
Staphylococcus aureus [3]
  inhibition at 1.5 µg/mL: 67.9 to 86.7%
Staphylococcus aureus [4]
  inhibition at 1.5 µg/mL: 67.9 to 86.7%
[5]
  inhibition at 1.5 µg/mL: 67.9 to 86.7%
Staphylococcus aureus [6]
  inhibition at 1.5 µg/mL: 67.9 to 86.7%

## O=C(C[n+]1ccn2cccc2c1-c1ccccc1)c1ccccc1
[11]
  IC50: 188 nM

## O=C(c1cc(Br)ccc1O)c1[nH]c(Cl)c(Br)c1Br
[1]
  inhibition at 1.5 µg/mL: > 60%
Staphylococcus aureus [2]
  inhibition at 1.5 µg/mL: > 60%
Staphylococcus aureus [3]
  inhibition at 1.5 µg/mL: > 60%
Staphylococcus aureus [4]
  inhibition at 1.5 µg/mL: > 60%
[5]
  inhibition at 1.5 µg/mL: > 60%
Staphylococcus aureus [6]
  inhibition at 1.5 µg/mL: > 60%

## O=C(c1cc(Br)ccc1O)c1[nH]c(Br)c(Br)c1Br
[1]
  inhibition at 1.5 µg/mL: > 60%
Staphylococcus aureus [2]
  inhibition at 1.5 µg/mL: > 60%
Staphylococcus aureus [3]
  inhibition at 1.5 µg/mL: > 60%
Staphylococcus aureus [4]
  inhibition at 1.5 µg/mL: > 60%
[5]
  inhibition at 1.5 µg/mL: > 60%
Staphylococcus aureus [6]
  inhibition at 1.5 µg/mL: > 60%

## O=C(O)[C@@H](Cc1ccc2c(c1)OCO2)[C@H](Cc1ccc2c(c1)OCO2)C(=O)O
[12]
  IC50: 2.7 to 9 nM

## CC(C)(C)OC(=O)NCC(NC(=O)C(=O)c1c[nH]c2ccccc12)c1c[nH]c2ccccc12 (stereo not drawn)
Staphylococcus aureus [7]
  MIC: > 32 µg/mL
Staphylococcus aureus [8]
  MIC: > 32 µg/mL
[13]
  MIC: 4 µg/mL
[14]
  MIC: 2 µg/mL

## CC(=O)Nc1ccc(S(=O)(=O)Nc2ccccc2NS(=O)(=O)c2ccc(NC(C)=O)cc2)cc1
[15]
  IC50: 200000 nM

## COC(=O)[C@H]1[C@H]2C[C@@H]3c4[nH]c5cc(OC)ccc5c4CCN3C[C@H]2C[C@@H](OC(=O)c2cc(OC)c(OC)c(OC)c2)[C@@H]1OC [RESERPINE]
[16]
  IC50: 9000 to 14000 nM

## CCCCc1ccc(/C=C(\C)Cn2cc(CCCCCc3c[nH]c(N)n3)nn2)cc1
Staphylococcus aureus [17]
  inhibition at 100 µM: > 94%

## O=C(O[C@H]1CCC(=O)c2ccccc21)c1ccccc1 [4-O-BENZOYL-ALPHA-TETRALONE]
Escherichia coli [18]
  MIC: 250 to 1000 µg/mL (≈ 939 to 3760 µM)
Escherichia coli [19]
  MIC: 250 to 1000 µg/mL (≈ 939 to 3760 µM)
Escherichia coli [20]
  MIC: 250 to 1000 µg/mL (≈ 939 to 3760 µM)
Escherichia coli [21]
  MIC: 250 to 1000 µg/mL (≈ 939 to 3760 µM)
Escherichia coli [22]
  MIC: 250 to 1000 µg/mL (≈ 939 to 3760 µM)

## O=C(O)C[C@@H]1CC[C@H](NC(=O)Cc2cccs2)B(O)O1 [VABORBACTAM]
[23]
  Ki: 29 to 99 nM
[24]
  Ki: 29 to 99 nM
[25]
  Ki: 29 to 99 nM
[26]
  Ki: 29 to 99 nM

## O=C(/C=C/c1ccccc1)O[C@H]1CCC(=O)c2ccccc21
Escherichia coli [18]
  MIC: 250 to 1000 µg/mL (≈ 855 to 3420 µM)
Escherichia coli [19]
  MIC: 250 to 1000 µg/mL (≈ 855 to 3420 µM)
Escherichia coli [20]
  MIC: 250 to 1000 µg/mL (≈ 855 to 3420 µM)
Escherichia coli [21]
  MIC: 250 to 1000 µg/mL (≈ 855 to 3420 µM)
Escherichia coli [22]
  MIC: 250 to 1000 µg/mL (≈ 855 to 3420 µM)

## Cc1nn(C)c([N-]C(=O)c2ccc(Cl)cc2)c1[N+]#N
Staphylococcus aureus [27]
  inhibition at 25 µg/mL: 69 to 96%
Staphylococcus aureus [28]
  MIC: 1.5 to 12.5 µg/mL (≈ 5.44 to 45.3 µM)
[29]
  MIC: 1.5 to 12.5 µg/mL (≈ 5.44 to 45.3 µM)
Staphylococcus aureus [30]
  MIC: 1.5 to 12.5 µg/mL (≈ 5.44 to 45.3 µM)

## C[C@]1(Cn2ccnn2)[C@H](C(=O)O)N2C(=O)C[C@H]2S1(=O)=O [TAZOBACTAM]
[15]
  IC50: 99000 nM

## CCCCCc1ccc(/C=C(\C)Cn2cc(CCCCCc3c[nH]c(N)n3)nn2)cc1
Staphylococcus aureus [17]
  inhibition at 100 µM: > 94%

## O=C1CC[C@H](O)c2ccccc21 [(-)-4-HYDROXY-ALPHA-TETRALONE]
Escherichia coli [18]
  MIC: 250 to 1000 µg/mL (≈ 1540 to 6170 µM)
Escherichia coli [19]
  MIC: 250 to 1000 µg/mL (≈ 1540 to 6170 µM)
Escherichia coli [20]
  MIC: 250 to 1000 µg/mL (≈ 1540 to 6170 µM)
Escherichia coli [21]
  MIC: 250 to 1000 µg/mL (≈ 1540 to 6170 µM)
Escherichia coli [22]
  MIC: 250 to 1000 µg/mL (≈ 1540 to 6170 µM)
Escherichia coli [31]
  fold change (FC): 4
